Data: patent US20250171451A1, “NOVEL HETEROCYCLIC COMPOUND AND PHARMACEUTICAL COMPOSITION COMPRISING SAME” (Samjin Pharmaceutical Co., Ltd., priority 2022, published 2025)

Assays:
[1] = molecular target: T1, recombinant GST-TEAD1 proteins (209 to 426 a.a.) (Homo sapiens, UniProt P28347); assay: Evaluation of palmitoylation of TEAD protein; format: biochemical; settings: 5 μM compound, 15 minutes preincubation, 3 μM alkyne palmitoyl-CoA 30 minutes, pH 6.4, vs DMSO control
T1 construct: recombinant GST-TEAD1 proteins (209 to 426 a.a.)
Method: Each compound corresponding to a concentration of 5 μM was added to recombinant GST-TEAD1 proteins (209 to 426 a.a.) and cultured for 15 minutes. For an autopalmitoylation reaction of proteins after culturing, 3 μM alkyne palmitoyl-CoA (Cayman chemical) and 50 mM MES buffer (pH 6.4) were added and cultured for 30 minutes, after which 1% of sodium dodecyl sulfate (SDS) was added to stop the reaction. After that, biotinylation was performed through a CLICK (Click chemistry tools) reaction, and then a protein solution was concentrated to prepare a sample.
Analysis of the sample was performed using SDS-PAGE and streptavidin HRP (Thermo scientific). The resulting values were quantified using an Image J (NIH). For the intensity of the band obtained from Streptavidin blot, a palmitoylation inhibitory activity was analyzed based on the control group (DMSO). The normalization of each sample was performed using an anti-GST (91G1) (cell signaling) antibody.

[2] = test system: TEAD response element (TRE) luciferase reporter in MCF-7 cell lines; assay: TEAD response element (TRE) reporter assay; format: cell-based; settings: Homo sapiens, MCF7; 0.2 μM compound, 24 hours, MCF-7 TEAD reporter cells, relative to vehicle (1% DMSO)
Method: MCF-7 cell lines injected with TEAD reporter genes expressing firefly luciferase upon activation of TEAD response element (TRE) were obtained from BPS bioscience (#60618). The TEAD reporter genes were injected to stable expression in the MCF-7 cell lines.
TEAD reporter genes expressing firefly luciferase upon activation of TEAD response element (TRE) were injected with TEAD reporter genes to ensure stable expression of the TEAD reporter genes. Here, the TEAD reporter genes expresses firefly luciferase upon activation of TEAD response element (TRE). The cells were cultured in a cell-only culture medium (BPS bioscience) to which 10 μg/mL insulin (Sigma) was added at 37° C. and 5% CO2.
In 24 hours after dispensing said cells into a 96-well plate, each of the compounds of the examples or a vehicle solvent (final 1% DMSO) was treated by being diluted with a serum-free culture medium so that the final concentration became 0.2 μM. In 24 hours after said treatment, a luciferase assay working solution (ONE-Step Luciferase assay reagent; BPS bioscience) containing a luciferase substrate was treated in each well at 100 μL, and then left in a shaker for 15 minutes to be well mixed. Then, a degree of luminescence generated by luciferase expressed according to TEAD activation was measured by a microplate reader (TECAN). A relative activity of luciferase […], and the results are shown in table 8 below.

T1 sequence (P28347 209-426): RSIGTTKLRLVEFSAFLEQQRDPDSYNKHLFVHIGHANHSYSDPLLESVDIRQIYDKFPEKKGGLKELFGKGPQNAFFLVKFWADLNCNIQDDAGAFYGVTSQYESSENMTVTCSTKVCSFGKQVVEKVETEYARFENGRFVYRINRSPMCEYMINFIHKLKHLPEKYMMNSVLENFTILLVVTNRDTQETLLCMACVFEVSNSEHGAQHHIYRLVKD

| Structure (SMILES) | inhibition at 5 µM [1] | inhibition at 0.2 µM [2] |
| --- | --- | --- |
| C=CC(=O)Nc1cnc2c(c1)c(C)nn2Cc1cccc(C(F)(F)F)c1 [Compound 56, N-(3-methyl-1-(3-(trifluoromethyl)benzyl)-1H-pyrazolo[3,4-b]pyridin-5-yl)acrylamide] | < 40% | > 50% |
| C=CC(=O)Nc1cnc2c(c1)c(C)cn2C1CCCCC1 [Compound 57, N-(1-cyclohexyl-3-methyl-1H-pyrrolo[2,3-b]pyridin-5-yl)acrylamide] | 40 to 80% | < 30% |
| C=CC(=O)Nc1cnc2c(c1)c(C)cn2-c1ccc(OC(F)(F)F)cc1 [Compound 58, N-(3-methyl-1-(4-(trifluoromethoxy)phenyl)-1H-pyrrolo[2,3-b]pyridin-5-yl)acrylamide] | > 80% | < 30% |
| C=CC(=O)Nc1cnc2c(c1)c(C)cn2-c1ccc(C(F)(F)F)c(OC)c1 [Compound 59, N-(1-(3-methoxy-4-(trifluoromethyl)phenyl)-3-methyl-1H-pyrrolo[2,3-b]pyridin-5-yl)acrylamide] | > 80% | 30 to 50% |
| C=CC(=O)Nc1cnc2c(c1)c(C)nn2Cc1ccc(C(C)(C)C)cc1 [Compound 60, N-(1-(4-(tert-butyl)benzyl)-3-methyl-1H-pyrazolo[3,4-b]pyridin-5-yl)acrylamide] | 40 to 80% | < 30% |
| C=CC(=O)Nc1cnc2c(c1)c(C)nn2Cc1ccc(C(F)(F)F)c(OC)c1 [Compound 61, N-(1-(3-methoxy-4-(trifluoromethyl)benzyl)-3-methyl-1H-pyrazolo[3,4-b]pyridin-5-yl)acrylamide] | < 40% | > 50% |
| C=CC(=O)Nc1cnc2c(c1)c(C)nn2Cc1ccc(C(F)(F)F)s1 [Compound 62, N-(3-methyl-1-((5-(trifluoromethyl)thiophen-2-yl)methyl)-1H-pyrazolo[3,4-b]pyridin-5-yl)acrylamide] | 40 to 80% | 30 to 50% |
| C=CC(=O)Nc1cnc2c(c1)c(C)cn2Cc1ccc(C(F)(F)F)s1 [Compound 63, N-(3-methyl-1-((5-(trifluoromethyl)thiophen-2-yl)methyl)-1H-pyrrolo[2,3-b]pyridin-5-yl)acrylamide] | 40 to 80% | 30 to 50% |
| C=CC(=O)Nc1cnc2c(c1)c(C)nn2-c1ccc(C(F)(F)F)c(OC)c1 [Compound 64, N-(1-(3-methoxy-4-(trifluoromethyl)phenyl)-3-methyl-1H-pyrazolo[3,4-b]pyridin-5-yl)acrylamide] | 40 to 80% | > 50% |
| C=CC(=O)Nc1cnc2c(c1)c(C)nn2Cc1ccc(C(F)F)cc1 [Compound 67, N-(1-(4-(difluoromethyl)benzyl)-3-methyl-1H-pyrazolo[3,4-b]pyridin-5-yl)acrylamide] | < 40% | 30 to 50% |
| C=CC(=O)Nc1cnc2c(c1)c(C)nn2C1=CCC(C(F)(F)F)CC1 (stereo not shown) [Compound 68, N-(3-methyl-1-(4-(trifluoromethyl)cyclohex-1-en-1-yl)-1H-pyrazolo[3,4-b]pyridin-5-yl)acrylamide] | 40 to 80% | > 50% |
| C=CC(=O)Nc1cnc2c(c1)c(C)nn2-c1ccc(C(F)F)cc1 [Compound 69, N-(1-(4-(difluoromethyl)phenyl)-3-methyl-1H-pyrazolo[3,4-b]pyridin-5-yl)acrylamide] | 40 to 80% | 30 to 50% |
| C=CC(=O)Nc1cnc2c(c1)c(C)nn2-c1ccc(F)cc1 [Compound 70, N-(1-(4-fluorophenyl)-3-methyl-1H-pyrazolo[3,4-b]pyridin-5-yl)acrylamide] | < 40% | 30 to 50% |
| C=CC(=O)Nc1cnc2c(c1)c(C)cn2Cc1ccc(C(F)F)cc1 [Compound 71, N-(1-(4-(difluoromethyl)benzyl)-3-methyl-1H-pyrrolo[2,3-b]pyridin-5-yl)acrylamide] | < 40% | 30 to 50% |
| C=CC(=O)Nc1cnc2c(c1)c(C)nn2-c1ccc(C(F)(F)F)c(Cl)c1 [Compound 72, N-(1-(3-chloro-4-(trifluoromethyl)phenyl)-3-methyl-1H-pyrazolo[3,4-b]pyridin-5-yl)acrylamide] | 40 to 80% | 30 to 50% |
| C=CC(=O)Nc1cnc2c(c1)c(C)nn2-c1cccc(OC)c1 [Compound 73, N-(1-(3-methoxyphenyl)-3-methyl-1H-pyrazolo[3,4-b]pyridin-5-yl)acrylamide] | < 40% | < 30% |
| C=CC(=O)Nc1cnc2c(c1)c(C)nn2-c1ccc(C(F)(F)F)c(C)c1 [Compound 74, N-(3-methyl-1-(3-methyl-4-(trifluoromethyl)phenyl)-1H-pyrazolo[3,4-b]pyridin-5-yl)acrylamide] | 40 to 80% | > 50% |
| C=CC(=O)Nc1cnc2c(c1)c(C)nn2-c1ccccc1C [Compound 75, N-(3-methyl-1-(o-tolyl)-1H-pyrazolo[3,4-b]pyridin-5-yl)acrylamide] | 40 to 80% | < 30% |
| C=CC(=O)Nc1cnc2c(c1)c(C)nn2-c1cc(F)cc(F)c1 [Compound 76, N-(1-(3,5-difluorophenyl)-3-methyl-1H-pyrazolo[3,4-b]pyridin-5-yl)acrylamide] | 40 to 80% | 30 to 50% |
| C=CC(=O)Nc1cnc2c(c1)c(C)nn2-c1ccc(OCC(C)C)cc1 [Compound 78, N-(1-(4-isobutoxyphenyl)-3-methyl-1H-pyrazolo[3,4-b]pyridin-5-yl)acrylamide] | 40 to 80% | < 30% |
| C=CC(=O)Nc1cnc2c(c1)c(C)nn2-c1ccc(C(C)(C)C)cc1 [Compound 79, N-(1-(4-(tert-butyl)phenyl)-3-methyl-1H-pyrazolo[3,4-b]pyridin-5-yl)acrylamide] | 40 to 80% | 30 to 50% |
| C=CC(=O)Nc1cnc2c(c1)c(C)nn2-c1ccc(C(C)CC)cc1 (stereo not shown) [Compound 80, N-(1-(4-(sec-butyl)phenyl)-3-methyl-1H-pyrazolo[3,4-b]pyridin-5-yl)acrylamide] | 40 to 80% | 30 to 50% |
| C=CC(=O)Nc1cnc2c(c1)c(C)nn2-c1ccccc1OC [Compound 81, N-(1-(2-methoxyphenyl)-3-methyl-1H-pyrazolo[3,4-b]pyridin-5-yl)acrylamide] | < 40% | < 30% |
| C=CC(=O)Nc1cnc2c(c1)c(C)nn2-c1ccccc1C(F)(F)F [Compound 82, N-(3-methyl-1-(2-(trifluoromethyl)phenyl)-1H-pyrazolo[3,4-b]pyridin-5-yl)acrylamide] | < 40% | < 30% |
| C=CC(=O)Nc1cnc2c(c1)c(C)nn2-c1ccccc1Br [Compound 83, N-(1-(2-bromophenyl)-3-methyl-1H-pyrazolo[3,4-b]pyridin-5-yl)acrylamide] | < 40% | < 30% |
| C=CC(=O)Nc1cnc2c(c1)c(C)nn2-c1cc(OC)cc(OC)c1 [Compound 84, N-(1-(3,5-dimethoxyphenyl)-3-methyl-1H-pyrazolo[3,4-b]pyridin-5-yl)acrylamide] | < 40% | < 30% |
